According to PMC7560154, “Novel Antimicrobial Peptide from Temporin L in The Treatment of Staphylococcus pseudintermedius and Malassezia pachydermatis in Polymicrobial Inter-Kingdom Infection” (Antibiotics, 2020):
In brackets after ≈: the same amount, converted by molar mass. Where a SMILES comes first, the peptide text is derived from it. [ ]: non-standard residue; d: D form.

Assays:
[1] = test system: MRSP mature biofilm; test: Confocal laser scanning microscopy of mature biofilm (LIVE/DEAD); format: cell-based, Staphylococcus pseudintermedius; conditions: MRSP 1-day-old biofilm, 24 h; 12.5 μM in method, 32 μg/mL in Figure 4 legend
Experimental: CLSM was used to confirm the effect of peptide 8 on mature biofilm respect the controls. MSRP were grown in chambered cover glass (μ Slide 4 well; ibidi GmbH, Germany) in a static condition for 24 h. Peptide 8 was added on a 1-day-old biofilm at 12.5 μM. Bacterial suspensions incubated with medium alone were used as a positive control. After 24 h, biofilms were rinsed with PBS and stained by using a LIVE/DEAD® BacLight Bacteria Viability stains (Life Technologies, Italy). After the staining, the images were observed using a LSM 700 inverted confocal laser-scanning microscope (Zeiss, Italy). The areas were scanned using a 10X objective lens with the signal recorded in the green channel for Syto9 (excitation 488 nm, emission 500–525 nm) and in red channel for PI (excitation 500–550 nm, emission 610–650 nm).

[2] = test system: methicillin-resistant S. pseudintermedius (MRSP); test: microbe, parasite or virus in culture; format: cell-based, Staphylococcus pseudintermedius
Experimental: (§1) MIC of all compounds was determined in Sabouraud Dextrose broth with 1% tween 80 (SB) medium, for M. pachydermatis, and Mueller–Hinton broth (MH), for S. pseudintermedius, by the broth microdilution assay (BMD) in 96-well microtiter plates, as previously reported. Specifically, SB containing 1% Tween 80 was used instead of RPMI 1640 medium. All compounds were dissolved in ethanol and ketoconazole in dimethyl sulfoxide (DMSO). The solutions were serially diluted in SB and MH two-fold from 0.19 to 50 μM. M. pachydermatis suspension was prepared from 3-day-old colonies grown on Sabouraud agar at 30 °C. The final concentration of the yeast inoculum suspensions was equivalent to 1–3 × 10^3 CFU/mL. Bacterial suspensions were diluted to yield an optical density (OD) around 0.5 at 595 nm and further diluted to a final concentration of 1 × 10^6 CFU/mL. The compounds were added to the microbial suspension in each well yielding a final cell concentration of 5 × 10^5 CFU/mL. Positive controls included oxacillin 5 μM (2 μg/mL) and vancomycin 1.4 μM (2 μg/mL) for S. pseudintermedius or ketoconazole 0.2 μM (0.125 μg/mL) for M. pachydermatis. Negative control wells were set to contain bacteria in MH or yeasts in SB plus the amount of ethanol used to dilute each compound. Medium turbidity was measured by a microtiter plate reader (Tecan, Milan, Italy) at 595 nm after 24 h for S. pseudintermedius and 48 h for M. pachydermatis. Absorbance was proportional to microbial growth. The MIC was defined as the lowest concentration of drug that caused a prominent decrease (≥90% inhibition) in visible growth relative to that of the growth control.

[3] = test system: methicillin-susceptible S. pseudintermedius (MSSP); test: microbe, parasite or virus in culture; format: cell-based, Staphylococcus pseudintermedius
Experimental: as §1

[4] = in vivo model of acute inflammation; cited from earlier work
[5] = test system: circulating blood cells; conditions: cited from earlier work
[6] = test system: MSSP biofilm formation; test: Biofilm formation, crystal violet assay, MSSP; format: cell-based, Staphylococcus pseudintermedius; conditions: sub-MIC 0.095 to 0.78 μM, 24 h
Experimental: (§2) Anti-biofilm activity of peptide 8 was examined by the crystal violet assay previously described with minor modifications. Microtiter plates were inoculated with bacteria at a final density of 10^6 CFU/mL and treated with peptide 8 ranging from 0.095 to 0.78 μM. Control cells were grown in the absence of peptide 8. After 24 h incubation at 37 °C, the supernatant was gently removed, and the wells were rinsed twice with PBS. The amount of biofilm formed in the wells was measured by crystal violet staining and the absorbance of the solution was measured at 595 nm.

[7] = test system: MRSP biofilm formation; test: Biofilm formation, crystal violet assay, MRSP; format: cell-based, Staphylococcus pseudintermedius; conditions: sub-MIC 0.095 to 0.78 μM, 24 h
Experimental: as §2

[8] = test system: MRSP mature biofilm; test: Mature biofilm biomass, crystal violet assay, MRSP; format: cell-based, Staphylococcus pseudintermedius; conditions: MRSP one-day-old biofilm, up to 25 μM, 24 h
Experimental: Biofilms were allowed to form in each well of a 96-well microtiter plate, as described by Stepanovic. After 24 h, planktonic cells were aspirated, and the plates were washed with 200 μL of PBS. Cells biofilms were exposed to 200 μL of peptide 8 at the final concentration ranging from 6.25 to 25 μM and the plate was further incubated for 24 h at 37 °C. Positive controls were non-treated cells incubated with 200 μL of medium broth. At the end of the experiment crystal violet-staining was performed to assess biofilm mass.

[9] = test system: M. pachydermatis
Experimental: as §1

[10] = test system: MRSP mature biofilm; test: Mature biofilm metabolic activity, XTT assay, MRSP; format: cell-based, Staphylococcus pseudintermedius; conditions: 24 h
Experimental: The metabolic activity of MSSP and MRSP mature biofilms was quantified by the XTT [2,3-bis(2-methyloxy-4-nitro-5-sulfophenyl)-2H-tetrazolium-5-carboxanilide] (Roche Diagnostics, Germany) reduction assay. The assay was conducted as previously described with some modifications. XTT (150 µL) was added to biofilms in each well and the plates were incubated for 40 min at 37 °C in the dark. The reduction of the tetrazolium salt by cellular dehydrogenase into orange formazan dye was photometrically measured at 490 nm. The medium was set as negative control. Viability values for each well were compared to controls.

[11] = test system: human keratinocytes; conditions: at MICs; cited from earlier work
From the text: Azole drugs represent the first choice to treat Malassezia-related infections. It is well known that routine antifungal administration may induce acquired resistance. Peptide 8 was further investigated to verify if prolonged treatment might induce resistance in the yeast. […] Thus, a prolonged application of peptide 8 can be resolutive for yeast infection, without causing drug-resistance. By considering the good results obtained until here, we were prompted to inves ...

[12] = test system: MRSP; test: Time-kill assay, MRSP; format: cell-based, Staphylococcus pseudintermedius
Experimental: Time kill assay was carried out as previously described. […] Plates were incubated at 37 °C on an orbital shaker at 120 rpm. Viability assessments were performed at 0, 2, 4, 6 and 24 h by plating 0.01 mL undiluted and 10-fold serially diluted samples onto Mueller–Hinton plates in triplicate. After overnight incubation at 37 °C, bacterial colonies were counted and compared with counts from control cultures.

CC[C@H](C)[C@H](NC(=O)[C@H](CCCNC(=N)N)NC(=O)[C@@H](CCCCN)NC(=O)[C@@H](CC(C)C)NC(=O)[C@H](Cc1ccccc1)NC(=O)[C@H](CCCCN)NC(=O)[C@H](CO)NC(=O)[C@H](Cc1ccccc1)NC(=O)[C@H](Cc1c[nH]c2ccccc12)NC(=O)[C@@H]1CCCN1C(=O)[C@@H](NC(=O)[C@@H](N)Cc1ccccc1)C(C)C)C(=O)N[C@@H](CC(C)C)C(N)=O [Peptide 8] (H-FVPWFSKF[dL][dK]RIL-NH2; N-terminus assumed)
Effect on cells within mature biofilm (LIVE/DEAD staining) [1]: killed or damaged
MBC ([2]; 24 h): 12.5 µM (≈ 21 µg/mL)
MIC ([2]; 24 h, read-out: MIC): 6.25 µM (≈ 10.5 µg/mL)
MBC/MIC Ratio ([2]; MRSP): 2
MBC ([3]; 24 h): 3.12 µM (≈ 5.24 µg/mL)
MIC ([3]; 24 h, read-out: MIC): 1.56 µM (≈ 2.62 µg/mL)
MBC/MIC Ratio ([3]; MSSP): 2
Anti-inflammatory activity [4]: potent anti-inflammatory activity
Hemolytic activity [5]: did not show hemolytic activity
Effect on biofilm formation [6]: ineffective
Effect on biofilm formation [7]: ineffective
Effect on mature biofilm biomass [8]: did not affect the biomass
MMC/MIC Ratio ([9]; M. pachydermatis): 1
MMC Values (minimum mycocidal concentration) ([9]; ≥3 log10 reduction in colony count from starting inoculum, agar 72 h at 30 °C): 6.25 µM
Reduction of biofilm viability ([10]; 6.25 μM): 38%
Reduction of biofilm viability ([10]; 12.5 μM): 52%
Effect on biofilm viability at 25 μM ([10]; 25 μM): reduced effect
Cytotoxicity [11]: low cytotoxicity
Log10CFU/mL 0 h ([12]; peptide at MIC value (6.25 μM), 37 °C, 0 h, three independent experiments in triplicate): 5.30 ± 0.18 Log10CFU/mL
Log10CFU/mL 1 h ([12]; peptide at MIC value (6.25 μM), 1 h): 2.47 ± 0.18 Log10CFU/mL
Log10CFU/mL 2 h ([12]; peptide at MIC value (6.25 μM), 2 h): 2.38 ± 0.19 Log10CFU/mL
Log10CFU/mL 4 h ([12]; peptide at MIC value (6.25 μM), 4 h): 1.30 ± 0.21 Log10CFU/mL
Log10CFU/mL 6 h ([12]; peptide at MIC value (6.25 μM), 6 h): 0.77 ± 0.12 Log10CFU/mL
Log10CFU/mL 24 h ([12]; peptide at MIC value (6.25 μM), 24 h): 4.86 ± 0.28 Log10CFU/mL
Bactericidal or bacteriostatic activity ([12]; time-kill at MIC value): bacteriostatic
